Source: BigSolDB 2.1

CCCCCCCC[n+]1ccn(C)c1.O=[N+]([O-])[O-]
solubility (mole fraction)
Details | in benzene | in cyclohexane | in m-xylene | in n-heptane | in n-hexane | in n-octane | in n-pentane | in o-xylene | in p-xylene | in toluene
278.15 K | – | – | – | – | – | – | 0.000687 | – | – | –
283.15 K | – | – | – | – | – | – | 0.000816 | – | – | –
288.15 K | – | – | – | – | 0.000683 | – | 0.000955 | – | – | –
293.15 K | – | 0.000775 | – | 0.000342 | 0.00078 | 0.000355 | 0.0011 | – | – | –
298.15 K | 0.000303 | 0.000901 | 0.00526 | 0.000407 | 0.000919 | 0.000411 | 0.00127 | 0.005 | 0.00308 | 0.000371
303.15 K | 0.000357 | 0.00106 | 0.00566 | 0.000488 | 0.00113 | 0.000502 | 0.00149 | 0.00529 | 0.00331 | 0.00043
308.15 K | 0.00041 | 0.00124 | 0.00605 | 0.000586 | 0.00128 | 0.000605 | – | 0.00558 | 0.00358 | 0.0005
313.15 K | 0.00049 | 0.00146 | 0.00645 | 0.000728 | 0.00162 | 0.000733 | – | 0.00587 | 0.00383 | 0.000598
318.15 K | 0.000572 | 0.00169 | 0.00685 | 0.000856 | 0.00184 | 0.000866 | – | 0.00616 | 0.00408 | 0.000699
323.15 K | 0.000661 | 0.00191 | 0.00725 | 0.00101 | 0.00206 | 0.00101 | – | 0.00646 | 0.00431 | 0.000806
328.15 K | 0.000751 | 0.00212 | 0.00765 | 0.00119 | 0.00232 | 0.00123 | – | 0.00675 | 0.00458 | 0.000892
333.15 K | 0.00086 | 0.00244 | 0.00805 | 0.00143 | 0.00271 | 0.00145 | – | 0.00704 | 0.00483 | 0.00103
338.15 K | 0.000981 | 0.00275 | 0.00845 | 0.00166 | – | 0.00168 | – | 0.00733 | 0.00508 | 0.00117
343.15 K | 0.00111 | – | 0.00885 | 0.00193 | – | 0.00198 | – | 0.00762 | 0.00533 | 0.00133
